Test system: NRK cells
Assay: Toxicity by trypan blue exclusion and replating of detached cells
Assay type: cell-based, rat
Procedure: The activities of the crude and high performance liquid chromatrography (HPLC)-purified GRGDSP peptide were similar. […] To study the correlation of detaching capacity with the cell attachment-promoting and attachment-inhibiting effects established previously (Pierschbacher and Ruoslahti, 1984a; 1984b), each of the following listed peptides was tested for its ability to detach cells: […]

N=C(N)NCCC[C@H](NC(=O)CN)C(=O)NCC(=O)N[C@@H](CC(=O)O)C(=O)N[C@@H](CO)C(=O)N1CCC[C@H]1C(=O)O [GRGDSP, GLY-ARG-GLY-ASP-SER-PRO]
replating of aggregates washed free of the peptide (NRK aggregates): attached to the dish
cell death by trypan blue exclusion (detached NRK cells): no cell death could be detected

From patent US4879237A, “Use of peptides in control of cell attachment and detachment” (La Jolla Cancer Research Foundation, priority 1985, dated 1989)
